Experimental data from article PMC6254361, “The properties of Msh2–Msh6 ATP binding mutants suggest a signal amplification mechanism in DNA mismatch repair” (The Journal of Biological Chemistry, 2018).

Target: T1, Msh2–Msh6 (Saccharomyces cerevisiae, UniProt P25847+Q03834, P25847:K694A)
T1 sequence (P25847 1-964 K694A): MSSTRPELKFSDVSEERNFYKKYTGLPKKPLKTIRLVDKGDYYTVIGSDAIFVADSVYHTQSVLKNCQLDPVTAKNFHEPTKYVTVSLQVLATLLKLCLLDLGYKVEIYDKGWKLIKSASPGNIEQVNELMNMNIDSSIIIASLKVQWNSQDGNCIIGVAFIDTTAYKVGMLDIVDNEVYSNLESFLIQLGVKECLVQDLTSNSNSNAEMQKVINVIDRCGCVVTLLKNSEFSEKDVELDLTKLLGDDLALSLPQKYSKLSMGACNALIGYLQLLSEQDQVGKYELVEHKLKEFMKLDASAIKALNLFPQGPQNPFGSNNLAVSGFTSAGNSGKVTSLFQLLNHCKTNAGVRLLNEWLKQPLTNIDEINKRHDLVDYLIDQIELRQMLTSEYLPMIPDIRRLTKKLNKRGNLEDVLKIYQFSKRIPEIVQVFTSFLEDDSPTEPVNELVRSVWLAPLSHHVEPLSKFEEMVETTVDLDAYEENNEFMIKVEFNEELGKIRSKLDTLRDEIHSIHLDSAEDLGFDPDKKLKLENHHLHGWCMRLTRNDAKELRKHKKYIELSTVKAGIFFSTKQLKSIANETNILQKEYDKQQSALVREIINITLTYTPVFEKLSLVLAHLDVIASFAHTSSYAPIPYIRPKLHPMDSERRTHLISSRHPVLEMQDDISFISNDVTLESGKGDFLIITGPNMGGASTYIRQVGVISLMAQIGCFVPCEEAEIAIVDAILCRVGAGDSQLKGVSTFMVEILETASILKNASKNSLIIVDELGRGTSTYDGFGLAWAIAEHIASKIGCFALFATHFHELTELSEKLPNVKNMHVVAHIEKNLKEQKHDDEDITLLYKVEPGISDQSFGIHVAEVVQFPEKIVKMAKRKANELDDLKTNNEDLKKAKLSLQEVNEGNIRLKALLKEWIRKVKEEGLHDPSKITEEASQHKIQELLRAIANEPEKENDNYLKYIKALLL
T1 sequence (Q03834 1-1242): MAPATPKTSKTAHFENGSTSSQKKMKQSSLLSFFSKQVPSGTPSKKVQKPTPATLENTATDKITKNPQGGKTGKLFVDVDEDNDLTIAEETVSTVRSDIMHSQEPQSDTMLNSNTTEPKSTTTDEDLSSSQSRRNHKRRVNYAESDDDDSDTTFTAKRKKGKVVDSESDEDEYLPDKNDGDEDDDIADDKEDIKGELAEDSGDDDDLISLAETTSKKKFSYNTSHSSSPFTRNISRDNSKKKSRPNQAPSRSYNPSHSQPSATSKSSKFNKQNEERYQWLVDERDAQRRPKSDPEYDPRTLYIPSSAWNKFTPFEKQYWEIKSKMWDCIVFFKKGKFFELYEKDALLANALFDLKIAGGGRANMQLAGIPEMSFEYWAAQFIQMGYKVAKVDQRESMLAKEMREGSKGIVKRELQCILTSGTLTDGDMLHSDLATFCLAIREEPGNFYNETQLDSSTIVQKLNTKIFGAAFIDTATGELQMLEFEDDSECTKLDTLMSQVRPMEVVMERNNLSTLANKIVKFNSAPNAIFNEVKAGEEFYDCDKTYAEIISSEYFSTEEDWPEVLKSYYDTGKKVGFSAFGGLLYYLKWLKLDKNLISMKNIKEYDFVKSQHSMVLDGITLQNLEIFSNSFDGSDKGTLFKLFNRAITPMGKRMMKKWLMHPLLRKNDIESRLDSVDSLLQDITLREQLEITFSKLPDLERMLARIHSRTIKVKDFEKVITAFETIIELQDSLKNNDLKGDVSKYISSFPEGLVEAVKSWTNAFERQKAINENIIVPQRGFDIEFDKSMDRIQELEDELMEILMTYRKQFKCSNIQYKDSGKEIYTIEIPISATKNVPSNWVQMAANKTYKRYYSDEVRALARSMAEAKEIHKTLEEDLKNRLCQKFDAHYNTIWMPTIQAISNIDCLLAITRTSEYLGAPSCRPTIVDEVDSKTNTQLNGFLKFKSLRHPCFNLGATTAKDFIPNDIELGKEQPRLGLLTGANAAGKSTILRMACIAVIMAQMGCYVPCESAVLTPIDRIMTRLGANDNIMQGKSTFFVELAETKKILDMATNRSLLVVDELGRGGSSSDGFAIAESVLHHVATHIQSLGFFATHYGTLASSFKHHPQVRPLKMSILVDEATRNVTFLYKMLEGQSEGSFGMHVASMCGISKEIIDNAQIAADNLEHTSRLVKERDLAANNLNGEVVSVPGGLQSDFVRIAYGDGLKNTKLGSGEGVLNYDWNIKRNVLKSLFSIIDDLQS
Test: UV cross-linking of [γ-32P]ATP, SDS-PAGE, phosphorimaging
Type: binding
Conditions: labelled compound; no Mg2+, EDTA, pH 8, on ice; Msh2 site at 60 μM ATP, Msh6 site at 1 μM ATP

Nc1ncnc2c1ncn2[C@@H]1O[C@H](COP(=O)(O)OP(=O)(O)OP(=O)(O)O)[C@@H](O)[C@H]1O [ATP]
relative ATP binding: Msh2(K694A)–Msh6 and Msh2(K694R)–Msh6 mutant complexes were defective for ATP binding to both
